# Data reported in US9074235B2, “Method for evaluating the improvement of skin elasticity using a mimetic dermis” (AMOREPACIFIC CORPORATION, priority 2010, dated 2015).
# What was measured:
# [1] = test system: dermal mimics (glycated collagen with human neonatal fibroblasts); assay: Evaluation of skin elasticity-improving effect using dermal mimics (three-dimensional images); format: cell-based; conditions: observed about 10 minutes after separation from culture insert
# Protocol: (1) 40 μl of 10× P buffer (DMEM (Dulbecco's Modified Eagle Medium (DMEM powder, Gibco, USA)), a Ham's F-12 nutrient mixture (F-12 powder, Gibco, USA), 4 ml of an antibiotic-antifungal agent (PSF, Gibco, USA) in 400 ml of sterile distilled water, 40 μl of reconstitution buffer (obtained by dissolving 2.2 g of NaHCO3 and 4.77 g of HEPES in 100 ml of 0.05M NaOH, and filtering the solution) and 2 μl of 5 M NaOH were added to an Epi-tube and sufficiently mixed.
# (2) 320 μl of an aqueous solution of normal collagen or an aqueous solution of glycated collagen is added to and well mixed with the mixture of step (1) and using a pipette.
# (3) 10^4 human neonatal fibroblasts (HDFn, Cascade Biologics, USA) are added to and well mixed with the solution of step (2) using a pipette so that the fibroblasts are uniformly distributed in the solution.
# (4) A culture insert (12 mm, Transwell®, Corning, USA) is placed in a 12-well culture dish, and the mixture is placed in the culture insert and is allowed to react at 37° for 30 minutes so that the aqueous collagen solution is hardened.
# (5) After the collagen has been completely hardened, fibroblast culture medium (M106, Cascade Biologics, USA) is added to both the inside and outside of the culture insert and incubated overnight. Then, the dermal mimic is incubated for in about one week while the medium is replaced at 3-day intervals. In this process, dermal remodeling occurs due to the interaction between the fibroblasts and the collagen fibers.
# Specifically, in this Example, the following collagens were prepared: non-glycated collagen (normal collagen); collagen glycated by treatment with 62.5 mM of ribose; collagen glycated by treatment with 62.5 mM of ribose together with 10 ppm of tocopherol; and collagen glycated by treatment with 62.5 mM of ribose together with 1 ppm of DPHP. Herein, the ribose used was obtained by dissolving D-ribose (Sigma, USA) in water and filtering the solution through a 0.2 μm filter (Minisart® sartorious stedim biotech, Germany). […]
# [2] = test system: collagen gel with fibroblasts; assay: Collagen gel contraction assay (two-dimensional); format: cell-based, human; conditions: collagen glycated with ribose at 62.5, 125 and 250 mM
# Protocol: Specifically, the dermal mimics were prepared according to the method of Reference Example 1, and the glycated collagen solution used in step (2) of the preparation method of Reference Example 1 was obtained by treating collagen with ribose at concentrations of 0, 62.5, 125 and 250 mM to induce collagen glycation. In addition, the ribose used was obtained by dissolving D-ribose (Sigma, USA) in water and filtering the solution through a 0.2 μm filter (Minisart® sartorious stedim biotech, Germany).
# A specific method for glycation of collagen is as follows. D-ribose was added to a solution of collagen (obtained by dissolving type I collagen (Sigma, USA) in 0.1% acetic acid to a final concentration of 3 mg/ml) at specific concentrations (62.5, 125 and 250 mM) in a clean bench for preventing the contamination of collagen, and the mixture was placed in a rotation mixer rotatable at 360°, after which the mixture was allowed to react at room temperature for 3 days to induce glycation of the collagen.
# In addition, for comparison, a collagen gel contraction assay which is a two-dimensional method was carried out by culturing a collagen gel, obtained by mixing fibroblasts with collagen glycated with the above-described concentrations of ribose, in a general culture dish, and obtaining a digital image of the cultured collagen gel.
compound,measurement,setting,value
tocopherol,breakdown of the dermal mimics (shape/height on three-dimensional image),[1]; collagen glycated with 62.5 mM ribose together with 10 ppm tocopherol,breakdown of the dermal mimics was inhibited
"O=C[C@H](O)[C@H](O)[C@H](O)CO [ribose, D-ribose]",shape of the dermal mimics (three-dimensional image),[1]; collagen glycated with 62.5 mM ribose alone,broken down
same,contraction of collagen gels (two-dimensional digital image),[2],not contracted
CCCCCCCCCCCCCCCC(=O)O[C@@H]1C[C@@H](C(=O)O)N(C(=O)CCCCCCCCCCCCCCC)C1 [DPHP],breakdown of the dermal mimics (shape/height on three-dimensional image),[1]; collagen glycated with 62.5 mM ribose together with 1 ppm DPHP,breakdown of the dermal mimics was inhibited
